{
  "source": "ChEMBL document CHEMBL6074659",
  "about": "“Development of an Intravenously Stable Disulfide-Rich Peptide for the Treatment of Chemotherapy-Induced Neuropathic Pain” (J Med Chem, 2024)",
  "key": {"[1]": {"molecular_target": "T1, Neuronal acetylcholine receptor; alpha9/alpha10 (Homo sapiens, UniProt Q9GZZ6+Q9UGM1)", "T1 sequence (Q9UGM1 whole entry)": "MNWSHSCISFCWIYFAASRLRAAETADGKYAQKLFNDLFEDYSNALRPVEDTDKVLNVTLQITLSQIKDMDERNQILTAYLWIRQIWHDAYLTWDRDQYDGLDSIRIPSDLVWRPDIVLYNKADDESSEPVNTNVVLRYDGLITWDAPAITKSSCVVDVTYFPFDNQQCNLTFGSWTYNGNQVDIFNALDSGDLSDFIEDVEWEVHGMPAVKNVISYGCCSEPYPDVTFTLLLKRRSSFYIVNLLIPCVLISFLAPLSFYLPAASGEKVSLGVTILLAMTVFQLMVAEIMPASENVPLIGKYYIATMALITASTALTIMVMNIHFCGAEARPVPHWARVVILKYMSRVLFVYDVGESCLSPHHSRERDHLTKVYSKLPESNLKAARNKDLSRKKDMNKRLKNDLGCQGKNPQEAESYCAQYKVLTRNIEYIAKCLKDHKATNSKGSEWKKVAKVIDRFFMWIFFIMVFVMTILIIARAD", "T1 sequence (Q9GZZ6 whole entry)": "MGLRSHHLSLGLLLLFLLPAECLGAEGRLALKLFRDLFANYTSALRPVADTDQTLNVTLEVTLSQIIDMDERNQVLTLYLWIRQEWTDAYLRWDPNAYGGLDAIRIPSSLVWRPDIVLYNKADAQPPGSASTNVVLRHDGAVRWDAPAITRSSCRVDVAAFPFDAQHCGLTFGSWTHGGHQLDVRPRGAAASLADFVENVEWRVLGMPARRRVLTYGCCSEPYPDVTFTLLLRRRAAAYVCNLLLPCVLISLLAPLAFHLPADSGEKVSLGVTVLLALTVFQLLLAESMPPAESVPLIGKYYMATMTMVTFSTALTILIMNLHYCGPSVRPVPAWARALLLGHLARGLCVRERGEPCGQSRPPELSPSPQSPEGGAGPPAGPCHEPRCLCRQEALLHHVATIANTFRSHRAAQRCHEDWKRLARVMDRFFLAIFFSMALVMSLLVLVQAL", "assay": "Inhibition of human alpha9alpha10 nAChR assessed as reduction in acetylcholine-induced current incubated for 5 mins by two electrode voltage-clamp assay", "format": "protein-complex assay"}, "[2]": {"assay": "Stability in human serum assessed as parent compound remaining incubated at 24 hrs by RP-HPLC analysis", "format": "ADME, cell-free", "settings": "human serum, read-out: Stability"}, "Homo sapiens [3]": {"species": "Homo sapiens", "assay": "Inhibition of human alpha1beta1epsilondelta nAChR assessed as reduction in acetylcholine-induced current at 10 to 100 nM incubated for 5 mins by two electrode voltage-clamp assay relative to control", "settings": "dose 10-100 nM"}, "Rattus norvegicus [4]": {"test_system": "Rattus norvegicus", "assay": "Analgesic activity in Oxaliplatin-induced cold allodynia SPF male Sprague-Dawley rat assessed as latency time at 500 microg/kg, iv measured at 48 hrs by cold plate test", "format": "functional", "settings": "dose 500 µg/kg"}, "Rattus norvegicus [5]": {"test_system": "Rattus norvegicus", "assay": "Analgesic activity in Oxaliplatin-induced cold allodynia SPF male Sprague-Dawley rat assessed as increase in latency at 500 microg/kg, iv measured at 72 hrs by cold plate test", "format": "functional, organism-based", "settings": "dose 500.0 µg/kg"}, "[6]": {"molecular_target": "Neuronal acetylcholine receptor; alpha3/beta4 (Homo sapiens) (UniProt P30926+P32297)", "assay": "Inhibition of human alpha3beta4 nAChR assessed as reduction in acetylcholine-induced current at 10 to 100 nM incubated for 5 mins by two electrode voltage-clamp assay relative to control", "format": "protein-complex assay", "settings": "dose 10-100 nM"}, "[7]": {"molecular_target": "T2, Neuronal acetylcholine receptor; alpha4/beta4 (Homo sapiens) (UniProt P30926+P43681)", "assay": "Inhibition of human alpha4beta4 nAChR assessed as reduction in acetylcholine-induced current at 100 nM incubated for 5 mins by two electrode voltage-clamp assay relative to control", "format": "protein-complex assay"}, "[8]": {"molecular_target": "T1, Neuronal acetylcholine receptor; alpha9/alpha10", "assay": "Antagonist activity at human alpha9alpha10 nAChR expressed in acetylcholine-induced Xenopus laevis oocytes assessed as inhibition of acetylcholine-induced current at -80 mV holding potential incubated for 5 mins by two electrode voltage-clamp assay", "format": "cell-based, Oocyte"}, "[9]": {"molecular_target": "T2, Neuronal acetylcholine receptor; alpha4/beta4 (Homo sapiens)", "assay": "Inhibition of human alpha4beta4 nAChR assessed as reduction in acetylcholine-induced current at 10 to 100 nM incubated for 5 mins by two electrode voltage-clamp assay relative to control", "format": "protein-complex assay", "settings": "dose 10-100 nM"}, "[10]": {"molecular_target": "Neuronal acetylcholine receptor subunit alpha-7 (Homo sapiens, UniProt P36544)", "sequence (P36544 whole entry)": "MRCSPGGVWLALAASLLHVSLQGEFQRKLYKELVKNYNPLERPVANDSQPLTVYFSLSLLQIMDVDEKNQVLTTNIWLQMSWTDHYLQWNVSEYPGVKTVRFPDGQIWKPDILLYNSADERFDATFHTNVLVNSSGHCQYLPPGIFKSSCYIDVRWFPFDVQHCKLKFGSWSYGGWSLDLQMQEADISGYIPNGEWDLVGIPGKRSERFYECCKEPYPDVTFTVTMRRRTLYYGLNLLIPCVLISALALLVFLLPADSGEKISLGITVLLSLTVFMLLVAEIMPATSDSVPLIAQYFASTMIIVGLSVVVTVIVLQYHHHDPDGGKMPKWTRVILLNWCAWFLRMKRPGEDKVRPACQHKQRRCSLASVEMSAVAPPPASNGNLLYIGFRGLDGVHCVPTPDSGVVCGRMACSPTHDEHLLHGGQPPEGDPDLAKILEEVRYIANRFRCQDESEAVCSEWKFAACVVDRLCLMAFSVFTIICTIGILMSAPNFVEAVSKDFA", "assay": "Inhibition of human alpha7 nAChR assessed as reduction in acetylcholine-induced current incubated for 5 mins by two electrode voltage-clamp assay"}, "[11]": {"assay": "Stability in human serum assessed as parent compound remaining incubated at 48 hrs by RP-HPLC analysis", "format": "ADME, cell-free", "settings": "read-out: Stability"}, "[12]": {"assay": "Stability in human serum assessed as half life incubated upto 192 hrs by RP-HPLC analysis", "format": "ADME, cell-free"}, "Rattus norvegicus [13]": {"test_system": "Rattus norvegicus", "assay": "Analgesic activity in Oxaliplatin-induced cold allodynia SPF male Sprague-Dawley rat assessed as reduction in pain-relieving effect at 500 microg/kg, iv measured at 24 to 48 hrs", "format": "functional, organism-based", "settings": "dose 500.0 µg/kg, time 24-48 hrs"}, "Rattus norvegicus [14]": {"test_system": "Rattus norvegicus", "assay": "Analgesic activity in Oxaliplatin-induced cold allodynia iv dosed SPF male Sprague-Dawley rat assessed as reduction in pain-relieving effect measured at 72 hrs", "format": "functional, organism-based", "settings": "dose 500.0 µg/kg"}, "Rattus norvegicus [15]": {"test_system": "Rattus norvegicus", "assay": "Analgesic activity in Oxaliplatin-induced cold allodynia SPF male Sprague-Dawley rat assessed as increase in latency at 200 microg/kg, iv measured at 72 hrs by cold plate test", "format": "functional, organism-based", "settings": "dose 200.0 µg/kg"}, "Rattus norvegicus [16]": {"test_system": "Rattus norvegicus", "assay": "Analgesic activity in Oxaliplatin-induced cold allodynia SPF male Sprague-Dawley rat assessed as reduction in pain-relieving effect by measuring acetone response score at 50 microg/kg, iv measured at 48 hrs", "format": "functional, organism-based", "settings": "dose 50.0 µg/kg"}, "[17]": {"molecular_target": "T2, Neuronal acetylcholine receptor; alpha4/beta4 (Homo sapiens)", "assay": "Inhibition of human alpha4beta4 nAChR assessed as reduction in acetylcholine-induced current at 10 nM incubated for 5 mins by two electrode voltage-clamp assay", "format": "protein-complex assay"}, "Rattus norvegicus [18]": {"test_system": "Rattus norvegicus", "assay": "Analgesic activity in Oxaliplatin-induced cold allodynia SPF male Sprague-Dawley rat assessed as reduction in pain-relieving effect by measuring acetone response score at 200 microg/kg, iv measured at 48 hrs", "format": "functional, organism-based", "settings": "dose 200.0 µg/kg"}, "Homo sapiens [19]": {"species": "Homo sapiens", "assay": "Inhibition of human alpha1beta1deltagamma nAChR assessed as reduction in acetylcholine-induced current at 10 to 100 nM incubated for 5 mins by two electrode voltage-clamp assay relative to control", "settings": "dose 10-100 nM"}, "[20]": {"molecular_target": "Neuronal acetylcholine receptor; alpha3/beta2 (Homo sapiens, UniProt P17787+P32297)", "sequence (P17787 whole entry)": "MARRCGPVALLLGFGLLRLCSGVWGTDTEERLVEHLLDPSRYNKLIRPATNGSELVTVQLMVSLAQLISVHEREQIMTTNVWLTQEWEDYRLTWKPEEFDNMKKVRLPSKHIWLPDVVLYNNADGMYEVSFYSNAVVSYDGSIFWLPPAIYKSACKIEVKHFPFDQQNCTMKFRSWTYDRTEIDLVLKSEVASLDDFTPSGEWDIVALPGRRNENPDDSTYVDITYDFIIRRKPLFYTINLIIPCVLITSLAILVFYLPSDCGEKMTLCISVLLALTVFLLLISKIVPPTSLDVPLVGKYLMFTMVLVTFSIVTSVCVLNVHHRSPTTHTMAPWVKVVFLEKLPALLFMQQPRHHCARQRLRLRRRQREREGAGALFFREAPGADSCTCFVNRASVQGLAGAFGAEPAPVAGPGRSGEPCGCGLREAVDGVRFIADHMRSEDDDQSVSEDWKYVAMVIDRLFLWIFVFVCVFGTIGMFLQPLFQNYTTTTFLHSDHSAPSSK", "sequence (P32297 whole entry)": "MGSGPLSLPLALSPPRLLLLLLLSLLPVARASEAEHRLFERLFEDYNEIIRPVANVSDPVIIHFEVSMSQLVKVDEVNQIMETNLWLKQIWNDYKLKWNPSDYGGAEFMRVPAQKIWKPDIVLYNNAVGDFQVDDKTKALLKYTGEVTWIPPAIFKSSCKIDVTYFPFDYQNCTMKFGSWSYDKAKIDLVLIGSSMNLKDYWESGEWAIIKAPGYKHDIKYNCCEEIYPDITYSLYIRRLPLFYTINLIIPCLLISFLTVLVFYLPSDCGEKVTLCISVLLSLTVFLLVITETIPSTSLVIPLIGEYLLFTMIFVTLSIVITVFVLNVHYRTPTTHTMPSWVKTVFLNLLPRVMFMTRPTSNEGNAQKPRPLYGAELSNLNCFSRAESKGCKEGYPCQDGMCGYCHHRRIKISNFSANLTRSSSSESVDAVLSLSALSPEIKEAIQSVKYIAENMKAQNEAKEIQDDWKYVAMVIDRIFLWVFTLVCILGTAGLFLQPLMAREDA", "assay": "Inhibition of human alpha3beta2 nAChR assessed as reduction in acetylcholine-induced current incubated for 5 mins by two electrode voltage-clamp assay", "format": "protein-complex assay"}},
  "note": "The source made the active and inactive calls. The rule behind the calls is not given here. Residues, ends and D or L forms follow the SMILES beside them.",
  "data": [
    {"smiles": "CC[C@H](C)[C@@H]1NC(=O)[C@H](CC(=O)O)NC(=O)[C@@H]2CCCN2C(=O)[C@H](CC(N)=O)NC(=O)[C@H](CC(N)=O)NC(=O)[C@H](C(C)C)NC(=O)[C@H](CO)NC(=O)[C@@H]2CSSC[C@H](NC(=O)CN)C(=O)N[C@@H](CSSC(C)(C)[C@@H](C(N)=O)NC1=O)C(=O)N[C@@H](CN)C(=O)N[C@@H](Cc1cnc[nH]1)C(=O)N1CCC[C@H]1C(=O)N[C@@H](C)C(=O)N2", "note": "(HELM PEPTIDE1{G.C.C.[NC[C@H](N[*:1])C(=O)[*:2]].H.P.A.C.S.V.N.N.P.D.I.[Pen].[am]}$PEPTIDE1,PEPTIDE1,2:R3-8:R3|PEPTIDE1,PEPTIDE1,3:R3-16:R3$$$V2.0)", "values": [
      {"measurement": "IC50", "setting": "[1]", "result": 4.1, "unit": "nM"},
      {"measurement": "remaining at 24 h", "setting": "[2]", "result": 90, "unit": "%"},
      {"measurement": "inhibition", "setting": "Homo sapiens [3]", "result": "< 1", "unit": "%"},
      {"measurement": "Time", "setting": "Rattus norvegicus [4]", "result": 140, "unit": "s"},
      {"measurement": "Activity", "setting": "Rattus norvegicus [5]", "result": "Active"},
      {"measurement": "inhibition", "setting": "[6]", "result": "< 1", "unit": "%"},
      {"measurement": "inhibition", "setting": "[7]", "result": 20, "unit": "%"},
      {"measurement": "IC50", "setting": "[8]", "result": 4, "unit": "nM"},
      {"measurement": "inhibition", "setting": "[9]", "result": "< 1", "unit": "%"},
      {"measurement": "IC50", "setting": "[10]", "result": 133, "unit": "nM"},
      {"measurement": "remaining at 48 h", "setting": "[11]", "result": 85, "unit": "%"},
      {"measurement": "half-life", "setting": "[12]", "result": 142, "unit": "h"},
      {"measurement": "Activity", "setting": "Rattus norvegicus [13]", "result": "Active"},
      {"measurement": "Activity", "setting": "Rattus norvegicus [14]", "result": "Dose-dependent-effect"},
      {"measurement": "Activity", "setting": "Rattus norvegicus [15]", "result": "Active"},
      {"measurement": "Activity", "setting": "Rattus norvegicus [16]", "result": "inactive"},
      {"measurement": "inhibition", "setting": "[17]", "result": "inactive"},
      {"measurement": "Activity", "setting": "Rattus norvegicus [18]", "result": "Active"},
      {"measurement": "inhibition", "setting": "Homo sapiens [19]", "result": "< 1", "unit": "%"},
      {"measurement": "IC50", "setting": "[20]", "result": 21.8, "unit": "nM"}
    ]}
  ]
}
